Assay results from patent US20210198204A1, “PRODRUGS OF KALLIKREIN INHIBITORS” (BioCryst Pharmaceuticals, Inc., priority 2016, published 2021).

Assay: Plasma pharmacokinetics of the parent compound after a single oral dose of prodrug
Type: in vivo
Settings: single oral dose 10 mg/kg, fasted male Sprague Dawley rats; plasma analyzed for the parent compound; study duration 8 h
Experimental: Plasma pharmacokinetics of compounds was determined using three male Sprague Dawley rats following a single oral dose administration. All animals were placed in a rat metabolic cage, isolated, and fasted approximately 15 hours prior to dosing. Identifying markers were placed on each animal. Each animal was weighed prior to dose administration. Animals were administered orally with a solution formulation of test compound either in water or a combination of water/propylene glycol, at a dose of 10 mg/kg. Gavage needles were attached to syringes and filled with appropriate amount of test article to be dosed. Blood samples (approximately 500 μL) were collected from three rats at pre-dose (time 0), 0.5, 1, 2, 4, 8, 12 and 24 hr, respectively, depending on study duration. Samples were collected into labeled micro centrifuge tubes containing (heparin solution) as an anticoagulant. Plasma was immediately harvested from the blood by centrifugation at 14,000 rpm for 3 min at 4° C., and stored below −70° C. until bioanalysis. Individual plasma samples were analyzed for the parent compound, 3-[2-(4-carbamimidoyl-phenylcarbamoyl)-5-methoxy-4-vinyl-phenyl]-6-(cyclopropylmethyl-carbamoyl)-pyridine-2-carboxylic acid. As shown in Table-1, the test compounds yielded varying degrees of exposure to the parent compound. The test compounds generally provided for improved bioavailability of the parent compound as compared to dosing of the parent compound in aqueous solutions.

SMILES | AUC0-last hour (area under the curve)
C=Cc1cc(C(=O)Nc2ccc(C(=N)NC(=O)OCCCCCC)cc2)c(-c2ccc(C(=O)NCC3CC3)nc2C(=O)OCOC(=O)[C@@H](N)CC(C)C)cc1OC [Compound 50d, (S)-((2-amino-4-methylpentanoyl)oxy)methyl 6-((cyclopropylmethyl)carbamoyl)-3-(2-((4-(N-((hexyloxy)carbonyl)carbamimidoyl)phenyl)carbamoyl)-5-methoxy-4-vinylphenyl)picolinate] | B (B = 1,001-10,000 ng/mL)
C=Cc1cc(C(=O)Nc2ccc(-c3noc(=O)[nH]3)cc2)c(-c2ccc(C(=O)NCC3CC3)nc2C(=O)OC(C)OC(=O)OC(C)C)cc1OC (stereo not shown) [Compound 52b, 1-((isopropoxycarbonyl)oxy)ethyl 6-((cyclopropylmethyl)carbamoyl)-3-(5-methoxy-2-((4-(5-oxo-4,5-dihydro-1,2,4-oxadiazol-3-yl)phenyl)carbamoyl)-4-vinylphenyl)picolinate] | A (A = 0-1,000 ng/mL)
C=Cc1cc(C=O)c(-c2ccc(C(=O)NCC3CC3)nc2C(=O)OC(OC(=O)C(C)(C)C)C(C)C)cc1OC (stereo not shown) [Compound 56b, 2-methyl-1-(pivaloyloxy)propyl 6-((cyclopropylmethyl)carbamoyl)-3-(2-formyl-5-methoxy-4-vinylphenyl)picolinate] | C (C >10,000 ng/mL)
C=Cc1cc(C(=O)Nc2ccc(C(=N)NC(=O)OCCCCCC)cc2)c(-c2ccc(C(=O)NCC3CC3)nc2C(=O)OC(OC(=O)C(C)(C)C)C(C)C)cc1OC (stereo not shown) [Compound 57a, 2-methyl-1-(pivaloyloxy)propyl 6-((cyclopropylmethyl)carbamoyl)-3-(2-((4-(N-((hexyloxy)carbonyl)carbamimidoyl)phenyl)carbamoyl)-5-methoxy-4-vinylphenyl)picolinate] | B (B = 1,001-10,000 ng/mL)
C=Cc1cc(C(=O)Nc2ccc(C(=N)NC(=O)OCCC(=O)OC(C)(C)C)cc2)c(-c2ccc(C(=O)NCC3CC3)nc2C(=O)OC(C)OC(=O)OC(C)C)cc1OC (stereo not shown) [Compound 60c, 1-((isopropoxycarbonyl)oxy)ethyl 3-(2-((4-(N-((3-(tert-butoxy)-3-oxopropoxy)carbonyl)carbamimidoyl)phenyl)carbamoyl)-5-methoxy-4-vinylphenyl)-6-((cyclopropylmethyl)carbamoyl)picolinate] | B (B = 1,001-10,000 ng/mL)
C=Cc1cc(C(=O)Nc2ccc(C(=N)NC(=O)OCCCCCC)cc2)c(-c2ccc(C(=O)NCC3CC3)nc2C(=O)OCOC(=O)[C@@H](N)CCC(=O)O)cc1OC [Compound 61d, (S)-4-amino-5-(((6-((cyclopropylmethyl)carbamoyl)-3-(2-((4-(N-((hexyloxy)carbonyl)carbamimidoyl)phenyl)carbamoyl)-5-methoxy-4-vinylphenyl)picolinoyl)oxy)methoxy)-5-oxopentanoic acid] | A (A = 0-1,000 ng/mL)
C=Cc1cc(C(=O)Nc2ccc(C(=N)NC(=O)OCCCCCC)cc2)c(-c2ccc(C(=O)NCC3CC3)nc2C(=O)OCOC(=O)[C@@H](N)[C@@H](C)CC)cc1OC [Compound 62d, (((2S,3S)-2-amino-3-methylpentanoyl)oxy)methyl 6-((cyclopropylmethyl)carbamoyl)-3-(2-((4-(N-((hexyloxy)carbonyl)carbamimidoyl)phenyl)carbamoyl)-5-methoxy-4-vinylphenyl)picolinate] | B (B = 1,001-10,000 ng/mL)
C=Cc1cc(C(=O)Nc2ccc(C(=N)NC(=O)OCCCCCC)cc2)c(-c2ccc(C(=O)NCC3CC3)nc2C(=O)OCOC(=O)[C@@H](N)Cc2ccccc2)cc1OC [Compound 69d, (S)-((2-amino-3-phenylpropanoyl)oxy)methyl 6-((cyclopropylmethyl)carbamoyl)-3-(2-((4-(N-((hexyloxy)carbonyl)carbamimidoyl)phenyl)carbamoyl)-5-methoxy-4-vinylphenyl)picolinate] | A (A = 0-1,000 ng/mL)

Further lines, results first:

AUC0-last hour (area under the curve) | SMILES
A (A = 0-1,000 ng/mL) | C=Cc1cc(C(=O)Nc2ccc(C(=N)NO)cc2)c(-c2ccc(C(=O)NCC3CC3)nc2C(=O)OC(C)OC(=O)OC(C)C)cc1OC (stereo not shown) [Compound 51b, 1-((isopropoxycarbonyl)oxy)ethyl 6-((cyclopropylmethyl)carbamoyl)-3-(2-((4-(N-hydroxycarbamimidoyl)phenyl)carbamoyl)-5-methoxy-4-vinylphenyl)picolinate]
B (B = 1,001-10,000 ng/mL) | C=Cc1cc(C(=O)Nc2ccc(C(=N)NC(=O)OC(C)OC(=O)[C@@H](N)C(C)C)cc2)c(-c2ccc(C(=O)NCC3CC3)nc2C(=O)OC(C)OC(=O)OC(C)C)cc1OC (stereo partly drawn) [Compound 54c, 1-((isopropoxycarbonyl)oxy)ethyl 3-(2-((4-(N-((1-(((S)-2-amino-3-methylbutanoyl)oxy)ethoxy)carbonyl)carbamimidoyl)phenyl)carbamoyl)-5-methoxy-4-vinylphenyl)-6-((cyclopropylmethyl)carbamoyl)picolinate]
B (B = 1,001-10,000 ng/mL) | C=Cc1cc(C(=O)Nc2ccc(C(=N)NC(=O)OC(C)OC(=O)[C@@H](N)C(C)C)cc2)c(-c2ccc(C(=O)NCC3CC3)nc2C(=O)OC(C)OC(=O)C(C)C)cc1OC (stereo partly drawn) [Compound 55b, 1-(isobutyryloxy)ethyl 3-(2-((4-(N-((1-(((S)-2-amino-3-methylbutanoyl)oxy)ethoxy)carbonyl)carbamimidoyl)phenyl)carbamoyl)-5-methoxy-4-vinylphenyl)-6-((cyclopropylmethyl)carbamoyl)picolinate]
B (B = 1,001-10,000 ng/mL) | C=Cc1cc(C(=O)Nc2ccc(C(=N)N)cc2)c(-c2ccc(C(=O)NCC3CC3)nc2C(=O)OC(C)OC(=O)[C@@H](N)C(C)C)cc1OC.Cl (stereo partly drawn) [Compound 58f, 1-(((S)-2-amino-3-methylbutanoyl)oxy)ethyl 3-(2-((4-carbamimidoylphenyl)carbamoyl)-5-methoxy-4-vinylphenyl)-6-((cyclopropylmethyl)carbamoyl)picolinate Hydrochloride]
B (B = 1,001-10,000 ng/mL) | C=Cc1cc(C(=O)Nc2ccc(C(=N)NC(=O)OCCCCCC)cc2)c(-c2ccc(C(=O)NCC3CC3)nc2C(=O)OC(C)OC(=O)[C@@H](N)C(C)C)cc1OC.Cl (stereo partly drawn) [Compound 59b, 1-(((S)-2-amino-3-methylbutanoyl)oxy)ethyl 6-((cyclopropylmethyl)carbamoyl)-3-(2-((4-(N-((hexyloxy)carbonyl)carbamimidoyl)phenyl)carbamoyl)-5-methoxy-4-vinylphenyl)picolinate Hydrochloride]
C (C >10,000 ng/mL) | C=Cc1cc(C(=O)Nc2ccc(C(=N)NC(=O)OC(C)C)cc2)c(-c2ccc(C(=O)NCC3CC3)nc2C(=O)OC(C)OC(=O)OC(C)C)cc1OC (stereo not shown) [Compound 63c, 1-((isopropoxycarbonyl)oxy)ethyl 6-((cyclopropylmethyl)carbamoyl)-3-(2-((4-(N-(isopropoxycarbonyl)carbamimidoyl)phenyl)carbamoyl)-5-methoxy-4-vinylphenyl)picolinate]
B (B = 1,001-10,000 ng/mL) | C=Cc1cc(C(=O)Nc2ccc(C(=N)NC(=O)OC(C)OC(=O)C(C)C)cc2)c(-c2ccc(C(=O)NCC3CC3)nc2C(=O)OCOC(=O)[C@@H](N)C(C)C)cc1OC (stereo partly drawn) [Compound 64b, (((S)-2-amino-3-methylbutanoyl)oxy)methyl 6-((cyclopropylmethyl)carbamoyl)-3-(2-((4-(N-((1-(isobutyryloxy)ethoxy)carbonyl)carbamimidoyl)phenyl)carbamoyl)-5-methoxy-4-vinylphenyl)picolinate]
B (B = 1,001-10,000 ng/mL) | C=Cc1cc(C(=O)Nc2ccc(C(=N)NC(=O)OC3COCOC3)cc2)c(-c2ccc(C(=O)NCC3CC3)nc2C(=O)OC(C)OC(=O)C(C)C)cc1OC (stereo not shown) [Compound 65c, 1-(isobutyryloxy)ethyl 3-(2-((4-(N-(((1,3-dioxan-5-yl)oxy)carbonyl)carbamimidoyl)phenyl)carbamoyl)-5-methoxy-4-vinylphenyl)-6-((cyclopropylmethyl)carbamoyl)picolinate]
B (B = 1,001-10,000 ng/mL) | C=Cc1cc(C(=O)Nc2ccc(C(=N)NC(=O)OC(COC)COC)cc2)c(-c2ccc(C(=O)NCC3CC3)nc2C(=O)OC(C)OC(=O)C(C)C)cc1OC (stereo not shown) [Compound 66c, 1-(isobutyryloxy)ethyl 6-((cyclopropylmethyl)carbamoyl)-3-(2-((4-(N-(((1,3-dimethoxypropan-2-yl)oxy)carbonyl)carbamimidoyl)phenyl)carbamoyl)-5-methoxy-4-vinylphenyl)picolinate]
B (B = 1,001-10,000 ng/mL) | C=Cc1cc(C(=O)Nc2ccc(C(=N)NC(=O)OC3COCOC3)cc2)c(-c2ccc(C(=O)NCC3CC3)nc2C(=O)OC(C)OC(=O)OC(C)C)cc1OC (stereo not shown) [Compound 68a, 1-((isopropoxycarbonyl)oxy)ethyl 3-(2-((4-(N-(((1,3-dioxan-5-yl)oxy)carbonyl)carbamimidoyl)phenyl)carbamoyl)-5-methoxy-4-vinylphenyl)-6-((cyclopropylmethyl)carbamoyl)picolinate]
B (B = 1,001-10,000 ng/mL) | C=Cc1cc(C(=O)Nc2ccc(C(=N)NC(=O)OCCCCCC)cc2)c(-c2ccc(C(=O)NCC3CC3)nc2C(=O)OC(C)OC(=O)OC2CCCCC2)cc1OC (stereo not shown) [Compound 70d, 1-(((cyclohexyloxy)carbonyl)oxy)ethyl 6-((cyclopropylmethyl)carbamoyl)-3-(2-((4-(N-((hexyloxy)carbonyl)carbamimidoyl)phenyl)carbamoyl)-5-methoxy-4-vinylphenyl)picolinate]
